Test results: ChEMBL document CHEMBL1201862, “PubChem BioAssay data set” (2004)
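Five compound concentrations were applied to cells in 96-well plates for 48 hours; endpoints were derived by simple linear interpolation of the resulting dose-response curve. The concentration for 50% growth inhibition is given as GI50.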 The source made the active and inactive calls. No stated cut-off is given here; in the data, active = GI50 up to about 1.1 µM and inactive = higher.

How the values were obtained:
Assay in all cases: NCI-60 cell line screen, 48 h
[1] = test system: HCC 2998
[2] = test system: RXF 393
[3] = test system: SF-268
[4] = test system: UACC-62
[5] = test system: KM12
[6] = test system: SNB-75
[7] = test system: NCI-H460
[8] = test system: HOP-62
[9] = test system: TK-10
[10] = test system: SF-539
[11] = test system: UO-31
[12] = test system: K562
[13] = test system: HCT-116
[14] = test system: RPMI-8226
[15] = test system: SNB-19
[16] = test system: SNB-78
[17] = test system: SK-OV-3
[18] = test system: SN12C
[19] = test system: SK-MEL-2
[20] = test system: CAKI-1
[21] = test system: UACC-257
[22] = test system: A549
[23] = test system: DLD-1
[24] = test system: OVCAR-5
[25] = test system: SW-620
[26] = test system: LOX IMVI
[27] = test system: DMS-114
[28] = test system: A498
[29] = test system: IGROV-1
[30] = test system: DMS-273
[31] = test system: EKVX
[32] = test system: HCT-15
[33] = test system: SF-295
[34] = test system: OVCAR-3
[35] = test system: M14
[36] = test system: RXF 631
[37] = test system: COLO 205
[38] = test system: HOP-92
[39] = test system: HOP-18
[40] = test system: CCRF-CEM
[41] = test system: ACHN
[42] = test system: HT-29
[43] = test system: 786-0
[44] = test system: U-251
[45] = test system: Malme-3M
[46] = test system: HL-60
[47] = test system: KM-20L2
[48] = test system: XF498
[49] = test system: LXFL 529
[50] = test system: MOLT-4
[51] = test system: OVCAR-8
[52] = test system: NCI-H23
[53] = test system: SK-MEL-5
[54] = test system: OVCAR-4
[55] = test system: NCI-H226
[56] = test system: SR

## CCCCCCCCCCCCCC(=O)OCC1OC(=O)CC1O (configuration not stated)
[1]
  GI50: > 100 µM (inactive)
[2]
  GI50: > 100 µM (inactive)
[3]
  GI50: > 100 µM (inactive)
[4]
  GI50: 94 µM (inactive)
[5]
  GI50: 81.5 µM (inactive)
[6]
  GI50: > 100 µM (inactive)
[7]
  GI50: > 100 µM (inactive)
[8]
  GI50: > 100 µM (inactive)
[9]
  GI50: > 100 µM (inactive)
[10]
  GI50: > 100 µM (inactive)
[11]
  GI50: 20.2 µM (inactive)
[12]
  GI50: 24.9 µM (inactive)
[13]
  GI50: 44.2 µM (inactive)
[14]
  GI50: 49.8 µM (inactive)
[15]
  GI50: > 100 µM (inactive)
[16]
  GI50: 56.1 µM (inactive)
[17]
  GI50: > 100 µM (inactive)
[18]
  GI50: > 100 µM (inactive)
[19]
  GI50: > 100 µM (inactive)
[20]
  GI50: 43 µM (inactive)
[21]
  GI50: > 100 µM (inactive)
[22]
  GI50: > 100 µM (inactive)
[23]
  GI50: 34.8 µM (inactive)
[24]
  GI50: > 100 µM (inactive)
[25]
  GI50: > 100 µM (inactive)
[26]
  GI50: 51.5 µM (inactive)
[27]
  GI50: 49.4 µM (inactive)
[28]
  GI50: > 100 µM (inactive)
[29]
  GI50: 88.5 µM (inactive)
[30]
  GI50: > 100 µM (inactive)
[31]
  GI50: > 100 µM (inactive)
[32]
  GI50: 25.4 µM
[33]
  GI50: 35.2 µM (inactive)
[34]
  GI50: > 100 µM (inactive)
[35]
  GI50: 21.9 µM (inactive)
[36]
  GI50: > 100 µM (inactive)
[37]
  GI50: > 100 µM (inactive)
[38]
  GI50: 7.36 µM (inactive)
[39]
  GI50: 0.437 µM (active)
[40]
  GI50: 42 µM (inactive)
[41]
  GI50: > 100 µM (inactive)
[42]
  GI50: 94.4 µM (inactive)
[43]
  GI50: > 100 µM (inactive)
[44]
  GI50: > 100 µM (inactive)
[45]
  GI50: > 100 µM (inactive)
[46]
  GI50: 43 µM (inactive)
[47]
  GI50: > 100 µM (inactive)
[48]
  GI50: > 100 µM (inactive)
[49]
  GI50: > 100 µM (inactive)
[50]
  GI50: 35.2 µM (inactive)
[51]
  GI50: > 100 µM (inactive)
[52]
  GI50: > 100 µM (inactive)
[53]
  GI50: > 100 µM (inactive)
[54]
  GI50: > 100 µM (inactive)

## CC1(CO)OC1COCc1ccccc1 (configuration not stated)
[55]
  GI50: > 100 µM (inactive)
[2]
  GI50: > 100 µM (inactive)
[3]
  GI50: > 100 µM (inactive)
[4]
  GI50: > 100 µM (inactive)
[5]
  GI50: > 100 µM (inactive)
[6]
  GI50: > 100 µM (inactive)
[7]
  GI50: > 100 µM (inactive)
[8]
  GI50: > 100 µM (inactive)
[10]
  GI50: > 100 µM (inactive)
[11]
  GI50: > 100 µM (inactive)
[12]
  GI50: > 100 µM (inactive)
[14]
  GI50: > 100 µM (inactive)
[15]
  GI50: > 100 µM (inactive)
[16]
  GI50: > 100 µM (inactive)
[17]
  GI50: > 100 µM (inactive)
[18]
  GI50: > 100 µM (inactive)
[19]
  GI50: > 100 µM (inactive)
[21]
  GI50: > 100 µM (inactive)
[22]
  GI50: > 100 µM (inactive)
[23]
  GI50: > 100 µM (inactive)
[24]
  GI50: > 100 µM (inactive)
[25]
  GI50: > 100 µM (inactive)
[26]
  GI50: > 100 µM (inactive)
[27]
  GI50: > 100 µM (inactive)
[29]
  GI50: > 100 µM (inactive)
[30]
  GI50: > 100 µM (inactive)
[31]
  GI50: > 100 µM (inactive)
[32]
  GI50: > 100 µM
[33]
  GI50: > 100 µM (inactive)
[34]
  GI50: > 100 µM (inactive)
[35]
  GI50: > 100 µM (inactive)
[36]
  GI50: > 100 µM (inactive)
[37]
  GI50: > 100 µM (inactive)
[38]
  GI50: > 100 µM (inactive)
[40]
  GI50: > 100 µM (inactive)
[41]
  GI50: > 100 µM (inactive)
[42]
  GI50: > 100 µM (inactive)
[43]
  GI50: > 100 µM (inactive)
[44]
  GI50: > 100 µM (inactive)
[45]
  GI50: > 100 µM (inactive)
[46]
  GI50: > 100 µM (inactive)
[47]
  GI50: > 100 µM (inactive)
[56]
  GI50: > 100 µM (inactive)
[48]
  GI50: > 100 µM (inactive)
[49]
  GI50: > 100 µM (inactive)
[50]
  GI50: > 100 µM (inactive)
[51]
  GI50: > 100 µM (inactive)
[52]
  GI50: > 100 µM (inactive)
